The text below walks through data of PubChem BioAssay (NCI).

The structures appear in SMILES notation.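 Where inhibition never reached the appropriate level, the endpoint shown equals the highest concentration tested. Otherwise, values were interpolated linearly from a five-concentration, 48-hour dose response in 96-well plates. GI50: concentration for 50% inhibition of growth. At the TGI there is no net growth.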

Some test systems named below: COLO 205 colon; NCI-H226 lung; U251 CNS; HCC-2998 colon; SK-MEL-28 melanoma; UACC-257 melanoma; OVCAR-3 ovarian; EKVX NSCLC; NCI-H460 lung; CCRF-CEM leukemia.
Holding throughout (assay): NCI-60 cell line screen, 48 h

On to `CC1=CC(=O)CC(C)(C)C1(O)/C=C/C(C)=C/C(=O)O` (stereo not given), for which the TGI in the experiment with COLO 205 colon, in the experiment on NCI-H226 lung, in the experiment with U251 CNS, with HCC-2998 colon, with SK-MEL-28 melanoma and in the experiment on UACC-257 melanoma was more than 100 µM each time. Further, the TGI in the experiment on OVCAR-3 ovarian, in the experiment on EKVX NSCLC, in the experiment with NCI-H460 lung and with CCRF-CEM leukemia was more than 100 µM throughout.
On to `Sc1ccc2ccccc2c1CNCc1ccccc1`, for which the TGI was 28.2 µM in the experiment on COLO 205 colon; 12.3 µM in the experiment on NCI-H226 lung; 30.8 µM in the experiment on U251 CNS; more than 100 µM in the experiment on HCC-2998 colon; 69.7 µM with SK-MEL-28 melanoma; more than 100 µM in the experiment on UACC-257 melanoma. The TGI in the experiment with OVCAR-3 ovarian is 31.4 µM; in the experiment with EKVX NSCLC, 78.3 µM; with NCI-H460 lung it was more than 100 µM; with CCRF-CEM leukemia, 54.1 µM.
Regarding `C=C(C)[C@@H]1CC[C@]2(C(N)=O)CC[C@]3(C)[C@H](CC[C@@H]4[C@@]5(C)CC[C@H](O)C(C)(C)[C@@H]5CC[C@]43C)[C@@H]12`, the GI50 in the experiment on COLO 205 colon was 3.63 µM; in the experiment on NCI-H226 lung, 4.1 µM; in the experiment on U251 CNS it was 2540 nM; in the experiment with HCC-2998 colon, 3960 nM; with SK-MEL-28 melanoma, 10.9 µM; in the experiment on UACC-257 melanoma, 13.2 µM. Further, the GI50 was 2070 nM in the experiment on OVCAR-3 ovarian, 2960 nM in the experiment on EKVX NSCLC, 2120 nM with NCI-H460 lung and 4.49 µM with CCRF-CEM leukemia. Also, the TGI was 15 µM with COLO 205 colon; 17.8 µM in the experiment on NCI-H226 lung; 7.16 µM with U251 CNS; 12.9 µM in the experiment on HCC-2998 colon; 42.3 µM with SK-MEL-28 melanoma; more than 100 µM in the experiment with UACC-257 melanoma. Also, the TGI was 4.18 µM in the experiment with OVCAR-3 ovarian, 18.2 µM in the experiment with EKVX NSCLC, 4.84 µM in the experiment with NCI-H460 lung and more than 100 µM in the experiment on CCRF-CEM leukemia.
For the compound `C=CCCOC(=O)CO[N+](=O)[O-]`, the TGI with COLO 205 colon, with NCI-H226 lung, in the experiment on U251 CNS, in the experiment with HCC-2998 colon, with SK-MEL-28 melanoma and with UACC-257 melanoma was more than 100 µM in each case. Moreover, the TGI with OVCAR-3 ovarian, in the experiment with EKVX NSCLC, in the experiment on NCI-H460 lung and in the experiment on CCRF-CEM leukemia was more than 100 µM in each case.
Consider `C[C@H]1CC[C@H]([C@@H](C)[C@H]2[C@@H](O)C[C@H]3[C@@H]4CC[C@H]5C[C@@H](O)CC[C@]5(C)[C@H]4CC[C@]23C)NC1`, for which the TGI in the experiment with COLO 205 colon is 45.7 µM; with NCI-H226 lung it was 39.5 µM; in the experiment on U251 CNS it was 31.9 µM; in the experiment with HCC-2998 colon it was 35.5 µM; with SK-MEL-28 melanoma, 36.1 µM; in the experiment on UACC-257 melanoma, 35.7 µM. The TGI with OVCAR-3 ovarian was found to be 39.8 µM; with EKVX NSCLC it was 32.5 µM; with NCI-H460 lung it was 39.7 µM; in the experiment with CCRF-CEM leukemia it was 29 µM.
For the compound `COC(=O)C(Cc1cnc[nH]1)NC(=O)CNC(=O)CCCn1c(=O)c2c3ccccc3n(C)c2n2nnc(-c3ccccc3)c12` (stereo not given), the GI50 in the experiment with COLO 205 colon is more than 100 µM; with NCI-H226 lung, more than 100 µM; in the experiment on U251 CNS, more than 100000 nM; in the experiment with HCC-2998 colon it was more than 100000 nM; with SK-MEL-28 melanoma, more than 100 µM; in the experiment on UACC-257 melanoma it was more than 100 µM. In addition, the GI50 in the experiment on OVCAR-3 ovarian is more than 100000 nM; in the experiment with EKVX NSCLC, more than 100000 nM; in the experiment on NCI-H460 lung it was more than 100000 nM; in the experiment with CCRF-CEM leukemia, more than 100 µM. The TGI in the experiment with COLO 205 colon, with NCI-H226 lung, in the experiment on U251 CNS, in the experiment with HCC-2998 colon, in the experiment with SK-MEL-28 melanoma and in the experiment with UACC-257 melanoma was more than 100 µM throughout. The TGI in the experiment with OVCAR-3 ovarian, in the experiment with EKVX NSCLC, with NCI-H460 lung and in the experiment on CCRF-CEM leukemia was more than 100 µM each time.
For the compound `CO/[N+]([O-])=C\C(=O)N/C=C/C(=O)O`, the TGI with COLO 205 colon, in the experiment on NCI-H226 lung, in the experiment on U251 CNS, with HCC-2998 colon, in the experiment on SK-MEL-28 melanoma and in the experiment on UACC-257 melanoma was more than 100 µM in each case. Also, the TGI with OVCAR-3 ovarian, in the experiment on EKVX NSCLC, in the experiment with NCI-H460 lung and in the experiment with CCRF-CEM leukemia was more than 100 µM in each case.
Regarding `COc1cc(Br)c(CC2(C#N)c3ccccc3C3C(N2C(=O)c2ccccc2)C3(Cl)Cl)cc1OC` (stereo not given), the TGI in the experiment with COLO 205 colon, with NCI-H226 lung, with U251 CNS, in the experiment with HCC-2998 colon, with SK-MEL-28 melanoma and in the experiment with UACC-257 melanoma was more than 65.5 µM throughout. The TGI with OVCAR-3 ovarian, with EKVX NSCLC, in the experiment with NCI-H460 lung and in the experiment with CCRF-CEM leukemia was more than 65.5 µM throughout.
Take `CCN(CC)CC.CCOc1ccc(NC(=O)N=C=[N-])cc1.[CH-]1CCCCC1.[CH-]1CCCCC1.[CH-]1CCCCC1.[Cl-].[Sn+4]`: the GI50 is 0.0184 µM in the experiment on COLO 205 colon; 0.0737 µM in the experiment with NCI-H226 lung; 26.1 nM in the experiment with U251 CNS; 25.5 nM with HCC-2998 colon; 0.0349 µM in the experiment on SK-MEL-28 melanoma; 0.0389 µM in the experiment with UACC-257 melanoma. For the same compound, the GI50 is 17.1 nM in the experiment with OVCAR-3 ovarian, 43 nM in the experiment on EKVX NSCLC, 27.9 nM in the experiment on NCI-H460 lung and less than 0.0162 µM in the experiment on CCRF-CEM leukemia. Further, the TGI in the experiment on COLO 205 colon came out at 0.0422 µM; in the experiment on NCI-H226 lung, 0.183 µM; in the experiment on U251 CNS, 0.0718 µM; in the experiment with HCC-2998 colon it was 0.0669 µM; in the experiment with SK-MEL-28 melanoma, 0.088 µM; with UACC-257 melanoma, 0.12 µM. In addition, the TGI is 0.038 µM in the experiment on OVCAR-3 ovarian, 0.143 µM in the experiment with EKVX NSCLC, 0.575 µM in the experiment with NCI-H460 lung and 0.515 µM in the experiment on CCRF-CEM leukemia.
Take `Fc1ccc(-c2nn3c(CNc4ccccc4)nnc3s2)cc1`: the GI50 is 11.2 µM in the experiment on COLO 205 colon; 45.5 µM in the experiment on NCI-H226 lung; 23500 nM with U251 CNS; 585 nM in the experiment with HCC-2998 colon; 42.2 µM in the experiment with SK-MEL-28 melanoma; 36.2 µM in the experiment on UACC-257 melanoma. For the same compound, the GI50 is 12200 nM in the experiment on OVCAR-3 ovarian, 27800 nM with EKVX NSCLC, 52300 nM in the experiment on NCI-H460 lung and 36.2 µM in the experiment on CCRF-CEM leukemia. Further, the TGI with COLO 205 colon is more than 100 µM; with NCI-H226 lung, more than 100 µM; in the experiment with U251 CNS it was more than 100 µM; with HCC-2998 colon it was 25 µM; in the experiment with SK-MEL-28 melanoma, more than 100 µM; in the experiment with UACC-257 melanoma, more than 100 µM. Further, the TGI was 49.1 µM in the experiment on OVCAR-3 ovarian, more than 100 µM in the experiment with EKVX NSCLC, more than 100 µM with NCI-H460 lung and more than 100 µM with CCRF-CEM leukemia.
